Measured values reported in ChEMBL document CHEMBL5604063, “ASAP - DENV-2 NS2B-NS3 protease fluorescence dose response” (2024).
“And” between values parts separate entries of the source, which are not always exact repeats. Identical values can stand only once.

Target: Genome polyprotein (dengue virus type 2, UniProt P29990)
Assay type: functional, Thailand/16681/1984

Genome polyprotein, sequence (P29990 1346-1475 limits assumed): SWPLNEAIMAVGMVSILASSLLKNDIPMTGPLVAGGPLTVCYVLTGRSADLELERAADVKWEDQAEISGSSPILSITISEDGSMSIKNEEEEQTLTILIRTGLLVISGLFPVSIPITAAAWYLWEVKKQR
Genome polyprotein, sequence (P29990 1476-2093 limits assumed): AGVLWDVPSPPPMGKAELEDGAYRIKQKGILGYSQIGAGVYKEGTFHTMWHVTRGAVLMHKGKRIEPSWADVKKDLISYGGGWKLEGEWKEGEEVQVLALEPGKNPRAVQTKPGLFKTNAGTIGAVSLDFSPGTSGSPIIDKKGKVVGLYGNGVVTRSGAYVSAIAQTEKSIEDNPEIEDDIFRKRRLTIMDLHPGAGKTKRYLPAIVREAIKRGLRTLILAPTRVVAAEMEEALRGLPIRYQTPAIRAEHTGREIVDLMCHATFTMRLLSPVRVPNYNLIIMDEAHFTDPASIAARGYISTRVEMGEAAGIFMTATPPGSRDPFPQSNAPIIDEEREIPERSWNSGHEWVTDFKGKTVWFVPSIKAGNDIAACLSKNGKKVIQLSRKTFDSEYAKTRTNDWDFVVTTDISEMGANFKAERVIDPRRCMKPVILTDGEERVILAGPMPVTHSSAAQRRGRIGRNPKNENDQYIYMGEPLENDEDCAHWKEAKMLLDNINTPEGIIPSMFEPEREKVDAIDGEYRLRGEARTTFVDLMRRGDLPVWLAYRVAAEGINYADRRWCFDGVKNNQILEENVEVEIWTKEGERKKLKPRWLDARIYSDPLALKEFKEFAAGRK

## CCCC[C@H](NC(C)=O)C(=O)N[C@H](C(=O)NCc1ccc(C(N)=O)cc1)c1ccc(OCc2ccccc2)cc1
  IC50: > 99.5 µM

## NC(=O)c1cccc(NC(=O)[C@@H](NC(=O)c2ccc(Oc3ccc(C(F)(F)F)cc3)cc2)c2ccc(OCc3ccccc3)cc2)c1
  IC50: > 99.5 µM

## CNC(=O)c1cc(Cl)ccc1NS(=O)(=O)c1cccc(Oc2ccccc2)c1
  IC50: > 99.5 µM

## O=C(N[C@H]1CCNC1=O)c1cc(Cl)ccc1NS(=O)(=O)c1ccc(Oc2ccccc2Cl)cc1
  IC50: 87.3 µM

## CN(C)c1ccc(/C=C/C(=O)C(=O)N2CCOCC2)cc1
  IC50: 88.8 µM

## C[C@@H](NC(=O)c1cc(Cl)ccc1NS(=O)(=O)c1ccc(Oc2ccccc2Cl)cc1)[C@H]1CCCO1
  IC50: > 99.5 µM

## NCc1cccc(NC(=O)[C@@H](NC(=O)OCc2ccccc2)c2ccc(Br)cc2)c1
  IC50: 88.3 µM and 63.1 µM

## O=C(c1cc(Cl)ccc1NS(=O)(=O)c1ccc(Oc2ccccc2Cl)cc1)N1CC[C@H](CO)C1
  IC50: 91.2 µM

## CNC(=O)c1cc(Cl)ccc1NS(=O)(=O)c1ccc(OC2CCCC2)nc1
  IC50: > 99.5 µM

## O=C(N[C@H]1CCOC1)c1cc(Cl)ccc1NS(=O)(=O)c1ccc(Oc2ccccc2Cl)cc1
  IC50: 67.4 µM

## O=S(=O)(Nc1ccc(Oc2ccccc2Cl)cc1)c1c[nH]c2ccc(Cl)cc12
  IC50: > 99.5 µM

## Cc1ccc(CNC(=O)c2cc(Cl)ccc2NS(=O)(=O)c2ccc(Oc3ccccc3Cl)cc2)s1
  IC50: > 99.5 µM

## CC[C@H]1CCN(C(=O)c2cc(Cl)ccc2NS(=O)(=O)c2ccc(Oc3ccccc3Cl)cc2)C1
  IC50: > 99.5 µM

## CCCC[C@@H](NC(=O)OC(C)(C)C)C(=O)N[C@@H](C(=O)NCc1ccc(CN)cc1)c1ccc(OCc2ccccc2)cc1
  IC50: 36.4 µM

## O=C1C[C@@H](CNC(=O)c2cc(Cl)ccc2NS(=O)(=O)c2ccc(Oc3ccccc3Cl)cc2)CN1
  IC50: 79.3 µM

## CCCC[C@H](N)C(=O)N[C@H](C(=O)NCc1ccc(C(N)=O)cc1)c1ccc(OCc2ccccc2)cc1
  IC50: > 99.5 µM

## COC1CN(C(=O)c2cc(Cl)ccc2NS(=O)(=O)c2ccc(Oc3ccccc3Cl)cc2)C1
  IC50: > 99.5 µM

## CCc1ccc(NS(=O)(=O)c2ccc(Oc3ccccc3Cl)cc2)c(C(=O)NC)c1
  IC50: > 99.5 µM

## CC(C)(C)OC(=O)Cn1ccnc(N2CC[C@@H](CO)C2)c1=O
  IC50: > 99.5 µM

## CNC(=O)c1cc(OC)ccc1NS(=O)(=O)c1ccc(Oc2ccccc2Cl)cc1
  IC50: > 99.5 µM

## C[C@H]1COCCN1C(=O)c1cc(Cl)ccc1NS(=O)(=O)c1ccc(Oc2ccccc2Cl)cc1
  IC50: 95.6 µM

## CNC(=O)c1cc(Cl)c(OC)cc1NS(=O)(=O)c1ccc(Oc2ccccc2Cl)cc1
  IC50: 31.9 µM

## CCCC[C@H](N)C(=O)N[C@@H](C(=O)NCc1ccc(C(N)=O)cc1)c1ccc(OCc2ccccc2)cc1
  IC50: > 99.5 µM

## COC[C@@H](C)CNC(=O)c1cc(Cl)ccc1NS(=O)(=O)c1ccc(Oc2ccccc2Cl)cc1
  IC50: > 99.5 µM

## CNC(=O)c1cc(C#N)ccc1NS(=O)(=O)c1ccc(Oc2ccccc2Cl)cc1
  IC50: 44.8 µM

## NC[C@H]1C[C@@H](NC(=O)[C@@H](NC(=O)OCc2ccccc2)c2ccc(OCc3ccccc3)cc2)C1
  IC50: > 99.5 µM

## CC[C@H](C#N)NC(=O)c1cc(Cl)ccc1NS(=O)(=O)c1ccc(Oc2ccccc2Cl)cc1
  IC50: 42.4 µM

## O=C(NC[C@H]1CCCO1)c1cc(Cl)ccc1NS(=O)(=O)c1ccc(Oc2ccccc2Cl)cc1
  IC50: > 99.5 µM

## O=C(NCc1c[nH]nn1)c1cc(Cl)ccc1NS(=O)(=O)c1ccc(Oc2ccccc2Cl)cc1
  IC50: 29.9 µM

## NC(=O)c1ccccc1NS(=O)(=O)c1ccc(Oc2ccccc2Cl)cc1
  IC50: > 99.5 µM

## CCCN(C)C(=O)c1cc(Cl)ccc1NS(=O)(=O)c1ccc(Oc2ccccc2Cl)cc1
  IC50: 27.9 µM

## CCCCCNC(=O)c1cc(Cl)ccc1NS(=O)(=O)c1ccc(Oc2ccccc2Cl)cc1
  IC50: > 99.5 µM

## CCn1ccnc(N2C[C@@H](O)[C@H](c3c[nH]c4ccccc34)C2)c1=O
  IC50: > 99.5 µM

## O=C(N[C@@H](C(=O)NC1CNC1)c1ccc(OCc2ccccc2)cc1)OCc1ccccc1
  IC50: > 99.5 µM

## NC[C@H]1CCN1C(=O)[C@@H](NC(=O)OCc1ccccc1)c1ccc(OCc2ccccc2)cc1
  IC50: > 99.5 µM

## CC(C)Oc1ccc(S(=O)(=O)Nc2ccc(Cl)cc2C(=O)O)cc1
  IC50: > 99.5 µM

## O=C(NC[C@H]1CCOC1)c1cc(Cl)ccc1NS(=O)(=O)c1ccc(Oc2ccccc2Cl)cc1
  IC50: 32.9 µM and 24 µM

## Cc1cc(NS(=O)(=O)c2ccc(Oc3ccccc3Cl)cc2)c(C(=O)NCC(F)(F)F)cc1F
  IC50: 22.1 µM

## NCc1cccc(NC(=O)[C@@H](NC(=O)OCc2ccccc2)C2CCCCC2)c1
  IC50: > 99.5 µM

## O=C(c1cc(Cl)ccc1NS(=O)(=O)c1ccc(Oc2ccccc2Cl)cc1)N1CCCC1
  IC50: 66.2 µM

## NCc1cccc(NC(=O)[C@@H](NC(=O)OCc2ccccc2)c2ccc(F)cc2F)c1
  IC50: > 99.5 µM

## CCn1c(=O)c(N2CC[C@@H](CO)C2)nc2ccccc21
  IC50: > 99.5 µM

## NCc1cccc(NC(=O)[C@@H](Cc2ccccc2)NC(=O)OCc2ccccc2)c1
  IC50: > 99.5 µM

## CC(C)c1ccc([C@@H](NC(=O)OCc2ccccc2)C(=O)Nc2cccc(CN)c2)cc1
  IC50: > 99.5 µM

## CNC(=O)c1cc(Br)cnc1NS(=O)(=O)c1ccc(Oc2ccccc2Cl)cc1
  IC50: 71.4 µM

## C[C@@H](N)c1cccc(NC(=O)[C@@H](NC(=O)OCc2ccccc2)c2ccc(OCc3ccccc3)cc2)c1
  IC50: > 99.5 µM

## O=C(NCc1cocn1)c1cc(Cl)ccc1NS(=O)(=O)c1ccc(Oc2ccccc2Cl)cc1
  IC50: 24.7 µM

## C#CCn1ccnc(N2CC[C@H](CO)C2)c1=O
  IC50: > 99.5 µM

## C[C@@H](NC(=O)c1cc(Cl)ccc1NS(=O)(=O)c1ccc(Oc2ccccc2Cl)cc1)C1COC1
  IC50: 70.2 µM

## NCc1cccc(NC(=O)[C@H]2c3ccccc3CCN2C(=O)OCc2ccccc2)c1
  IC50: > 99.5 µM

## CC(C)Nc1nc2ccc(C(=O)Nc3nnnn3-c3ccccn3)cc2[nH]1
  IC50: > 99.5 µM

## O=S(=O)(c1ccc(Oc2ccccc2Cl)cc1)n1ccc2cc(Cl)ccc21
  IC50: > 99.5 µM

## NCc1cccc(NC(=O)[C@@H](NC(=O)OCc2ccccc2)C(C2CCC2)C2CCC2)c1
  IC50: > 99.5 µM and 98.9 µM

## CCn1ccnc(N2CC[C@@H](CC(N)=O)C2)c1=O
  IC50: > 99.5 µM

## CCn1ccnc(-n2cc([C@@H]3NC(=O)NC3=O)c3ccccc32)c1=O
  IC50: > 99.5 µM

## O=S(=O)(Nc1ccc(Cl)cc1)c1ccc(Oc2ccccc2Cl)cc1
  IC50: > 99.5 µM

## O=C(NCC1CC1)c1cc(Cl)ccc1NS(=O)(=O)c1ccc(Oc2ccccc2Cl)cc1
  IC50: 22 µM

## NCc1cccc(CNC(=O)[C@@H](NC(=O)OCc2ccccc2)c2ccc(OCc3ccccc3)cc2)c1
  IC50: 21.7 µM and 12 µM

## CCn1ccnc(N2CC[C@H](c3ccc(OC)nc3)C2)c1=O
  IC50: > 99.5 µM

## O=C(Nc1ccc(Cl)cc1C(=O)O)c1ccc(Oc2ccccc2Cl)cc1
  IC50: 42.5 µM

## CCn1ccnc(N2CC[C@H](c3ccc(F)cc3)C2)c1=O
  IC50: > 99.5 µM

## C[C@@H](O)CNC(=O)c1cc(Cl)ccc1NS(=O)(=O)c1ccc(Oc2ccccc2Cl)cc1
  IC50: 56.6 µM

## NCc1cccc(NC(=O)[C@@H](NC(=O)OCc2ccccc2)c2cc(F)cc(F)c2)c1
  IC50: > 99.5 µM

## CC(C)CNC(=O)c1cc(Cl)ccc1NS(=O)(=O)c1ccc(Oc2ccccc2Cl)cc1
  IC50: 13 µM

## CC(=O)N[C@@H](C(=O)Nc1cccc(CN)c1)c1ccc(OCc2ccccc2)cc1
  IC50: > 99.5 µM

## CCCC[C@H](NC(C)=O)C(=O)N[C@H](C(=O)Nc1ccc(C(N)=O)cc1)c1ccc(OCc2ccccc2)cc1
  IC50: > 99.5 µM

## NCc1cccc(NC(=O)[C@H]2c3ccc(OCc4ccccc4)cc3CCN2C(=O)OCc2ccccc2)c1
  IC50: > 99.5 µM

## NCc1cccc(NC(=O)[C@@H]2c3ccsc3CCN2C(=O)OCc2ccccc2)c1
  IC50: > 99.5 µM

## CC(C)(C)Oc1ccc(S(=O)(=O)Nc2ccc(Cl)cc2C(=O)O)cc1
  IC50: > 99.5 µM

## CCOc1ccc([C@@H](NC(=O)OCc2ccccc2)C(=O)Nc2cccc(CN)c2)cc1
  IC50: > 99.5 µM

## O=C(c1cc(Cl)ccc1NS(=O)(=O)c1ccc(Oc2ccccc2Cl)cc1)N1CCC[C@@H]1CO
  IC50: 62.7 µM

## CCn1ccnc(N2CC[C@H](C#N)C2)c1=O
  IC50: > 99.5 µM

## NCc1cccc(NC(=O)[C@@H](NC(=O)OCc2ccccc2)c2cccc(F)c2F)c1
  IC50: > 99.5 µM

## O=c1c(N2CC[C@H](CO)C2)nccn1C1CC1
  IC50: > 99.5 µM

## CN(CCS(N)(=O)=O)C(=O)c1cc(Cl)ccc1NS(=O)(=O)c1ccc(Oc2ccccc2Cl)cc1
  IC50: 84 µM

## COc1cc(N[C@@H](C(=O)N2CCc3ccc(OC(F)(F)F)cc32)c2ccc(Cl)cc2)cc(OCCCC(=O)O)c1
  IC50: 14.2 µM

## O=C(O)c1cccc(NC(=O)c2ccc3[nH]ccc3c2)c1
  IC50: > 99.5 µM

## CCn1ccnc(N2CC[C@@H](CC#N)C2)c1=O
  IC50: > 99.5 µM

## COc1ccc(S(=O)(=O)Nc2ccc(Cl)cc2C(=O)O)cc1
  IC50: > 99.5 µM

## O=C(O)c1cc(Cl)ccc1NS(=O)(=O)c1ccc(Br)cc1
  IC50: > 99.5 µM

## CCCC[C@H](NC(C)=O)C(=O)N[C@H](C(=O)NCc1ccc(CN)cc1)c1ccc(OCc2ccccc2)cc1
  IC50: 77.3 µM

## O=C(c1cc(Cl)ccc1NS(=O)(=O)c1ccc(Oc2ccccc2Cl)cc1)N1CCC[C@H](O)C1
  IC50: 63.6 µM

## CN(C(=O)[C@@H](NC(=O)OCc1ccccc1)c1ccc(OCc2ccccc2)cc1)c1cccc(CN)c1
  IC50: > 99.5 µM

## O=C(NCc1cnn(CCO)c1)c1cccc2c1NC(=O)[C@]1(CCCN1)C2
  IC50: > 99.5 µM

## O=C(NCc1ccccc1)c1cc(O)ccc1NS(=O)(=O)c1ccc(Oc2ccccc2Cl)cc1
  IC50: 86.4 µM

## CNC(=O)c1cc(Cl)c(F)cc1NS(=O)(=O)c1ccc(Oc2ccccc2Cl)cc1
  IC50: 14.9 µM

## NCc1cccc(NC(=O)[C@@H](NC(=O)OCc2ccccc2)c2ccc(Cl)cc2)c1
  IC50: > 99.5 µM

## CNC(=O)c1cnncc1NS(=O)(=O)c1ccc(Oc2ccccc2Cl)cc1
  IC50: > 99.5 µM

## O=C(N[C@@H](C(=O)N[C@H]1CCCNC1)c1ccc(OCc2ccccc2)cc1)OCc1ccccc1
  IC50: > 99.5 µM

## NCc1ccc(C[C@H](NC(=O)OCc2ccccc2)C(=O)Nc2cccc(CN)c2)cc1
  IC50: > 99.5 µM

## COc1ccc(S(=O)(=O)Nc2cc(F)c(Cl)cc2C(=O)O)cc1
  IC50: > 99.5 µM

## CC[C@H]1CCN(c2nccn(CC)c2=O)C1
  IC50: > 99.5 µM

## O=C(O)c1cc(Cl)ccc1NS(=O)(=O)c1ccc(Oc2ccccc2Cl)cc1
  IC50: 13.8 µM

## C[C@@H](CS(C)(=O)=O)NC(=O)c1cc(Cl)ccc1NS(=O)(=O)c1ccc(Oc2ccccc2Cl)cc1
  IC50: 80.9 µM

## CCn1ccnc(N(C)[C@@H](CO)Cc2c[nH]c3ccccc23)c1=O
  IC50: > 99.5 µM

## NCc1ccc2c(c1)N(C(=O)[C@@H](NC(=O)OCc1ccccc1)c1ccc(OCc3ccccc3)cc1)CC2
  IC50: > 99.5 µM
